{
  "source": "patent US20100012894A1",
  "about": "“Tooth Whitening Compositions and Methods” (priority 2008, published 2010)",
  "origin": "cited, not measured here",
  "details": "at six months; concentrations 16%-18% carbamide peroxide (Brunton et al., 2004)",
  "data": [
    {"smiles": "NC(N)=O.OO", "note": "[carbamide peroxide]", "values": [
      {"measurement": "rebound", "result": "40 % of patients"}
    ]}
  ]
}
